Test results taken from patent US8492391B2, “Substituted 6-(2-hydroxybenzylamino)purine derivatives, their use as medicaments and compositions containing these derivatives” (Univerzita Palackeho V Olomouci, priority 2009, dated 2013).
“Also recorded” adds a separate entry of the source.

How the values were obtained:
[1] = test system: p53; assay: p53-dependent transcription, β-galactosidase reporter in Arn8 cells; type: cell-based, human; parameters: key to p53 (effect): induction of p53 protein: ++: very strong; +: weak; −: no effect
[2] = test system: K562 (human chronic myelogenous leukaemia); assay: Calcein AM cytotoxicity assay, K562; type: cell-based; details: Homo sapiens, read-out: Cytotoxic activity IC50 (μM) K562
Description: (§1) Cytotoxicity of the compounds is the major property determining their anticancer effect in vivo. One of the parameters used, as the basis for cytotoxicity assays, is the metabolic activity of viable cells. For example, a microtiter assay, which uses the Calcein AM, is now widely used to quantitate cell proliferation and cytotoxicity. For instance, this assay is used in drug screening programs and in chemosensitivity testing. Because only metabolically active cells cleave Calcein AM, these assays detect viable cells exclusively. The quantity of cleaved Calcein AM corresponds to the number of vital cells in the culture. We have been using the following cell lines: MCF7 (human breast adenocarcinoma), K562 (human chronic myelogenous leukaemia), HOS (human osteogenic sarcoma), HeLa (human cervical carcinoma), HL 60 (human promyelocytic leukaemia), G 361 (human malignant melanoma), CEM (human lymphoblastoid leukaemia). All cell lines were grown in DMEM medium (Gibco BRL) supplemented with 10% (v/v) fetal bovine serum and L-glutamine and maintained at 37° C. in a humidified atmosphere with 5% CO2. For cytotoxicity assays, 10^4 cells were seeded into each well of 96 well plate, allowed to stabilize for at least 2 h and then tested compounds were added at various concentrations ranging from 100 to 0.1 μM in triplicates. Three days after drug addition Calcein AM solution (Molecular Probes) was added and let to enter the cells for 1 hour. Fluorescence of viable cells was quantified using Fluoroskan Ascent (Microsystems).

[3] = target: T1, CDK2/cyclin E (Homo sapiens, UniProt P24941); assay: CDK2/cyclin E kinase inhibition assay; type: biochemical
T1 construct: made in house; host or cells: Sf9 insect cells, baculovirus co-infection
Protocol: Selected compounds were tested for CDK1/cyclin B, CDK2/cyclin E, CDK5/p25, CDK7/cyclin H and CDK9/cyclin T inhibitory activity to determine the basic relationships between their structure and the inhibitory activity. Cdk/cyclin complexes were expressed in Sf9 cells co-infected with appropriate baculoviral construct. The cells were harvested 70 hours post infection in lysis buffer (50 mM Tris pH 7.4, 150 mM NaCl, 5 mM EDTA, 20 mM NaF, 1% Tween 20, protease inhibitors) for 30 min on ice and the soluble fraction was recovered by centrifugation at 14.000 g for […]. The protein extract was stored at −80° C. until use. The final point test system for kinase activity measurement was used to carry out experiments on the kinetics under linear conditions. […] ATP and tested compound in a final volume of 20 μl, all in reaction buffer: 50 mM Hepes pH 7.4, 10 mM MgCl2, 5 mM EGTA, 10 mM 2-glycerolphosphate, 1 mM NaF, 1 mM DTT and protease inhibitors. After 30 min, the incubations were stopped by adding 5% H3PO4 and then the proteins were separated by phosphocellulose binding. The measurement of kinase inhibition employed the digital imaging analyzer BAS 1800. The kinase activity was expressed as a percentage of maximum activity and the IC50 value was determined by graphic analysis. The kinase activity is expressed as a percentage of maximum activity (FIG. 1).

[4] = test system: MCF7 (human breast adenocarcinoma); assay: Calcein AM cytotoxicity assay, MCF7; type: cell-based
Description: as §1

[5] = test system: C-terminal domain of RNA polymerase II (serine 2 and serine 5 phosphorylation); assay: Immunoblotting of RNA polymerase II CTD phosphorylation (CDK9 activity in cells), MCF-7; type: cell-based, human; details: MCF-7 cells
Protocol: Effect of compounds on CDK9 activity in cells was monitored by site-specific phosphorylations of C-terminal domain of RNA polymerase II, a substrate of CDK9, by means of immunoblotting. For immunoblotting, cell were detached with rubber policeman and washed three times with ice-cold PBS and lysed in buffer (50 mM Tris, pH 7.4, 250 mM NaCl, 5 mM EDTA, 50 mM NaF, 1 mM Na3VO4, 1% Nonidet P40) containing mixture of protease and phosphatase inhibitors (Sigma-Aldrich, USA). 20 μg of total proteins were separated by SDS-polyacrylamide gel electrophoresis (SDS-PAGE) and transferred onto nitrocellulose membranes. Membranes were blocked in 5% milk and 0.1% Tween 20 in PBS and probed overnight with specific monoclonal antibodies or rabbit polyclonal sera. Primary antibodies specific for RNA polymerase II (all from Santa Cruz Biotechnology, California, USA) included: (i) N-20 used at 1 μg/ml, (ii) H14, specific for form phosphorylated at phosphoserine 5, used at 6 μg/ml and (iii) H5, specific for form phosphorylated at phosphoserine 2 used at 4 μg/ml. […] All primary antibodies were diluted in PBS containing 5% powdered milk; 0.1% Tween 20. Peroxidase conjugated rabbit anti-mouse immunoglobulin or porcine anti-rabbit immunoglobulin antisera (DAKO, Denmark) were used as the secondary antibodies and visualised with ECL reagents (Amersham-Pharmacia, Little Chalfont, UK). […]

CCC(CO)Nc1nc(NCc2cccc(OC)c2O)c2ncn(C(C)C)c2n1 (racemic) [Compound 128, (RS)-2-({6-[(2-hydroxy-3-methoxybenzyl)amino]-9-isopropyl-9-H-purin-2-yl}amino)butan-1-ol]
p53 (effect): induction of p53 protein ([1]; Arn8 cells stable transfected with a β-galactosidase reporter gene): ++
total β-galactosidase activity ([1]; Arn8 cells, 5 μM, 12 and 24 hours after treatment, vs DMSO control): strong activity of β-galactosidase
p53 (peak concentration in μM) ([1]; Arn8 cells, concentration inducing maximum of β-galactosidase activity): 8.0 µM
activation of p53-dependent transcription ([1]; Arn8 reporter cell line, β-galactosidase reporter activity): proved to activate p53-dependent transcription
IC50 [2]: 15.5 µM
inhibition of kinase activity (FIG. 1) ([3]; CDK2/cyclin E): inhibition of the CDK2/cyclin E kinase activity
IC50 ([3]; kinase inhibitory activity, 15 μM ATP, histone substrate): 0.07 µM
IC50 ([4]; Homo sapiens, MCF7, read-out: Cytotoxic activity IC50 (μM) MCF7): 5 µM
number of viable cells (antiproliferative activity) ([4]; MCF7, 72 h): significantly reduces the number of living cells
levels of serine 2 and serine 5 phosphorylation of RNA polymerase II CTD [5]: substantially reduced; also recorded: is inhibited
